How the values were obtained:
[1] = system: cortisone to cortisol conversion in male C57BL/6 mice; assay: Acute In Vivo Cortisone Conversion Assay; conditions: oral dose of 10 mg/kg, cortisone challenge 30 mg/kg s.c. after 16 hours, serum cortisol
Description: Acute In Vivo Cortisone Conversion Assay
In general, compounds are dosed orally into mice, the mice are challenged with a subcutaneous injection of cortisone at a set timepoint after compound injection, and the blood of each animal is collected some time later. Separated serum is then isolated and analyzed for levels of cortisone and cortisol by LC-MS/MS, followed by calculation of mean cortisol and percent inhibition of each dosing group. Specifically, male C57BL/6 mice are obtained from Harlan Sprague Dawley at average weight of 25 grams. Exact weights are taken upon arrival and the mice randomized into groups of similar weights. Compounds are prepared in 1% w-w HEC, 0.25% w-w polysorbate 80, 0.05% w-w Dow Corning antifoam #1510-US at various doses based on assumed average weight of 25 grams. Compounds are dosed orally, 200 μl per animal, followed by a subcutaneous dose, 200 μl per animal, of 30 mg/kg cortisone at 1 to 24 hours post compound dose. At 10 minutes post cortisone challenge, each animal is euthanized for 1 minute in a CO2 chamber, followed by blood collection via cardiac puncture into serum separator tubes. Once fully clotted, tubes are spun at 2500×g, 4° C. for 15 minutes, the serum transferred to wells of 96-well plates (Corning Inc, Costar #4410, cluster tubes, 1.2 ml, polypropylene), and the plates are frozen at −20° C. until analysis by LC-MS/MS. […]

[2] = biological target: T1, 11β-HSD1 in primary human aortic smooth muscle cells (AoSMC) (Homo sapiens, UniProt P28845); assay: Human Aortic Smooth Muscle Cell Assay (cortisone to cortisol conversion); format: cell-based; conditions: hTNFα induced, cortisol by time resolved immunoassay
T1 construct: containing 12 ng/mL hTNFα to induce expression of 11β-HSD1; endogenous in cells; host or cells: primary human aortic smooth muscle cells (AoSMC), induced with hTNFα
T1 sequence (P28845 whole entry): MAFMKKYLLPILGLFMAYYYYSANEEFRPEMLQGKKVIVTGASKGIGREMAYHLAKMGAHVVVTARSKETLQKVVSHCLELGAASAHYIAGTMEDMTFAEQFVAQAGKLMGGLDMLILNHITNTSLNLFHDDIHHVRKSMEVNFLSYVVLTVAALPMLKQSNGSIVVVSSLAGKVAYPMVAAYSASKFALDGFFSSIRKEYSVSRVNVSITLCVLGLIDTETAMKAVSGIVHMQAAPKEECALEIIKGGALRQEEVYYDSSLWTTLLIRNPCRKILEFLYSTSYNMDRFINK
Description: Human Aortic Smooth Muscle Cell Assay
Primary human aortic smooth muscle cells (AoSMC) are cultured in 5% FBS growth medium to a passage number of 6, then pelleted by centrifugation and resuspended at a density of 9×10^4 cells/mL in 0.5% FBS assay medium containing 12 ng/mL hTNFα to induce expression of 11β-HSD1. Cells are seeded into 96-well tissue culture assay plates at 100 μL/well (9×10^3 cells/well) and incubated for 48 hours at 37° C., 5% CO2. Following induction, cells are incubated for 4 hours at 37° C., 5% CO2 in assay medium containing test compounds then treated with 10 μL/well of 10 μM cortisone solubilized in assay medium, and incubated for 16 hours at 37° C., 5% CO2. Medium from each well is transferred to a plate for subsequent analysis of cortisol using a competitive fluorescence resonance time resolved immunoassay. […] Higher levels of free cortisol result in diminishing energy transfer from the Europium-IgG to the APC-cortisol complex resulting in less APC fluorescence. Fluorescent intensities for Europium and APC are measured using a LJL Analyst AD. Europium and APC […] is measured using 360 nm excitation and 615 nm and 650 nm emission filters respectively. […] Fluorescent intensities measured for APC are modified by dividing by the Eu fluorescence (APC/Eu). […]

[3] = biological target: recombinant human 11β-HSD type 1 enzyme (Homo sapiens, UniProt P28845); assay: 11-β-HSD Type 1 Enzyme Assay (NADPH fluorescence); format: biochemical; conditions: three hour incubation at room temperature, read-out: Human 11-βHSD1 IC50
Sequence of recombinant human 11β-HSD type 1 enzyme (P28845 whole entry): as above
Description: 11-β-HSD Type 1 Enzyme Assay
Human 11-β-HSD type 1 activity is measured by assaying NADPH production by fluorescence assay. Solid compounds are dissolved in DMSO to a concentration of 10 mM. Twenty microliters of each are then transferred to a column of a 96-well polypropylene Nunc plate where they are further diluted 50-fold followed by subsequent two-fold titration, ten times across the plate with additional DMSO using a Tecan Genesis 200 automated system. Plates are then transferred to a Tecan Freedom 200 system with an attached Tecan Temo 96-well head and an Ultra 384 plate reader. Reagents are supplied in 96-well polypropylene Nunc plates and are dispensed individually into black 96-well Molecular Devices High Efficiency assay plates (40 μL/well capacity) in the following fashion: 9 μL/well of substrate (2.22 mM NADP, 55.5 μM Cortisol, 10 mM Tris, 0.25% Prionex, 0.1% Triton X100), 3 μL/well of water to compound wells or 3 μL to control and standard wells, 6 μL/well recombinant human 11β-HSD type 1 enzyme, 2 μL/well of compound dilutions. […] Plates are then shaken once more for 15 seconds then placed into an Ultra 384 microplate reader (355EX/460EM) for detection of NADPH fluorescence.

IC50 [2] [nM] | IC50 [3] [nM] | Structure (SMILES) | % Inhibition after 16 hours (dose of 10 (mg/kg)) [1] [%]
16.8 | – | O=C(c1ccc(-c2cc(Cl)c(C[C@@H]3CCN(N4CCCCC4)C3=O)c(Cl)c2)cc1)N1CCC(C(F)(F)F)CC1 [Example 1, (R)-3-[3,5-Dichloro-4′-(4-trifluoromethyl-piperidine-1-carbonyl)-biphenyl-4-ylmethyl]-1-piperidin-1-yl-pyrrolidin-2-one] | 78
10.4 | 357 | O=C(c1ccc(-c2cc(Cl)c(C[C@@H]3CCN(N4CCCCC4)C3=O)c(Cl)c2)cc1)N1CCC(O)CC1 [Example 2, (R)-3-[3,5-Dichloro-4′-(4-hydroxy-piperidine-1-carbonyl)-biphenyl-4-ylmethyl]-1-piperidin-1-yl-pyrrolidin-2-one] | –

From US8148534B2, “Inhibitors of 11-beta-hydroxysteroid dehydrogenase 1” (Eli Lilly and Company, priority 2006, dated 2012)
